Measurements taken from patent publication US6821442B1, “Method and apparatus for control of aquatic vertebrate and invertebrate invasive species” (priority 2002, dated 2004).
≈ marks a conversion by molar mass, not a printed value. Where two headings read alike, the source gives them in different places.

Assays:
Asian clams = settings: cited from earlier work
zebra mussels [1] = settings: 25° C., cited from earlier work
zebra mussels [2] = settings: cited from earlier work
[3] = test system: Asian clam (Corbicula fluminea); experiment: LT50 of Asian clam exposed to supersaturated gas, standard laboratory methods (APHA 1995); type: in vivo
Text: Gas supersaturation (ΔP>0) with CO2, air or combustion off-gas is established and maintained for a time period shown to cause a selected mortality rate within the population of the target species. We have established LT50 values (LT50 is defined as the time to kill 50 per cent of a targeted species) for the Asian clam (Corbicula fluminea) exposed to elevated concentrations of carbon dioxide and a simulated combustion gas mixture ([…]; N2=85.7%; CO2=13.6%; SO2=0.284%). The LT50 values were established using standard laboratory methods (APHA 1995). With carbon dioxide exposure, LT50 was described by the model (R^2=0.86):
LT50 values decreased from a high of 270 min at 260 mm Hg PCO2 to a low of 90 min at 2070 mm Hg gage pressure. This later value represents a 27 fold decrease in LT50 below that established by McMahon et al (1995) at a PCO2 of 760 mm Hg (absolute pressure). Combustion gas requires longer exposure periods given a lower XCO2. The LT50 at a operating pressure of 2070 mm Hg is about 350 min. […] Lower levels of LT50 are anticipated for fish and other aquatic exotics of concern.

O=C=O [carbon dioxide]
concentration causing toxicity (Asian clams): 500 mg/L | concentration inducing a narcotizing effect (Asian clams): 100 mg/L | LT50 (zebra mussels [1]; PCO2 75 torr, zebra mussels): 78 h | mortality (zebra mussels [1]; PCO2 75 torr, zebra mussels): complete mortality | effect on byssal threads (zebra mussels [1]; PCO2 of 38 torr): detachment of byssal threads and inhibition of byssal thread formation | LC50 (zebra mussels [2]; 48 h, 18° C.): 196 µg/mL (≈ 4.45 mM) | LC50 (zebra mussels [2]; 48 h, 22° C.): 290 µg/mL (≈ 6.59 mM) | LC50 (zebra mussels [2]; 96 h, 18° C.): 74 µg/mL (≈ 1.68 mM) | LC50 (zebra mussels [2]; 96 h, 22° C.): 81 µg/mL (≈ 1.84 mM) | exposure period after which sub-lethal narcotizing effects (gaping response) were induced (zebra mussels [2]): 4 h | LT50 ([3]; 260 mm Hg PCO2, Asian clam): 270 min | fold decrease in LT50 below that of McMahon et al at PCO2 760 mm Hg (absolute pressure) ([3]; 2070 mm Hg gage pressure): 27 fold | LT50 ([3]; 2070 mm Hg gage pressure, Asian clam): 90 min
